Reference: PMC12332157, “A preclinical study on the influence of linkers in [^68Ga]Ga-NOTA-X-RM26 radiotracers for PET imaging of GRPR expression” (EJNMMI Research, 2025)
Where two headings read alike, the source gives them in different places. Starred links: 1 amine or outer side, 2 acyl side, 3 side chain; linkers in the order of their positions; H or OH if unused. Non-standard residues stand in square brackets, D forms with d. Residues, ends and D or L forms follow the SMILES beside them. *: point of attachment. NOTA = O=C(O)CN1CCN(CC(=O)O)CCN(CC(=O)*)CC1; Sta = CC(C)C[C@H](N)[C@@H](O)CC(=O)O; X2 = O=C(COc1cccc(CN[*:1])c1)[*:2]; X1 = O=C(Cc1ccccc1CCN[*:1])[*:2]

Key:
[1] = Octanol-water distribution coefficient (LogD); type: physicochemical; settings: n-octanol/PBS; n = 3; mean ± sd
Description: Octanol-water distribution coefficient (LogD) was determined by adding 10 pmol of radiopeptide to an Eppendorf tube containing 500 µL of phosphate-buffered saline (PBS) and 500 µL of n-octanol. Each tube was vortexed for 2 min and centrifuged at 6000 g for 5 min. Three 100 µL fractions were collected from each phase, and their radioactivity was measured.

[2] = design: method as in PMID 25684649; settings: same time point (2 h), 40 pmol; cited from earlier work
[3] = Complex stability of 68Ga-labeled peptides in PBS or EDTA solution in PBS (iTLC); type: physicochemical; settings: n = 3, mean ± sd; for remaining at 1 h, 1 µM: PBS buffer, pH 7.4, incubation at 37 °C for 1 h in PBS; for Stability in PBS with EDTA: incubation at 37 °C for 1 h in PBS with 1000-fold molar excess of EDTA, in % (unit assumed)
[4] = Biodistribution in BALB/c nu/nu mice bearing PC-3 xenografts; type: in vivo; settings: female, BALB/c nu/nu, mouse, iv, total radioactivity
Description: Female BALB/c nu/nu mice of 18–22 g weight were used in the study. All procedures with animals were conducted in accordance with the EU Directive 2010/63/EU for animal experiments and Swedish national legislation concerning the protection of laboratory animals. The experiments were approved by the ethics committee for animal research in Uppsala (Sweden) with permit number 5.8.18–00473/2021. Animals were housed in individually ventilated cages, under a 12-h light/dark cycle with free access to food and water.
For tumor inoculation, 8·10^6 PC-3 cells in 100 µL PBS were injected subcutaneously into the right hind leg of mice. Mouse weight and tumor size were measured every 2–3 days, and tumor volume was estimated by ellipsoid approximation. A predefined humane endpoint of the experiment was either a 15% weight loss or a tumor volume of 1000 mm^3, neither of which was reached.
Four weeks after tumor cell implantation, mice were randomized and divided into 6 groups (4 animals / group): 3 of them received treatment with ^68Ga-radiolabeled peptides, while the other 3 received the same peptides in addition to 5 nmol of non-labeled NOTA-PEG2-RM26 peptide for GRPR-blocking. Peptides were injected intravenously via the tail veins at a dose of 50 pmol (700 kBq radioactivity dose).
At 2 h post injection, mice were sacrificed by overdose of Ketamine/Xylazine anesthesia, and blood was collected by heart puncture. Then, liver, spleen, lungs, pancreas, kidneys, small intestine, stomach, tail, femur bones, tumor and muscle from the opposite legs were collected, weighed, and radioactivity was measured using a Wizard 2480 gamma counter. Data are presented as percentages of injected activity per gram of tissue (%IA/g).

[5] = blood, 50 pmol, 2 h p.i., i.v., read-out: Radionuclide concentration, Blood
[6] = blood, Blockade (co-injection of NOTA-PEG2-RM26), 2 h, read-out: Radionuclide concentration, Blood
[7] = bone, 50 pmol, 2 h p.i., i.v., read-out: Radionuclide concentration, Bone
[8] = bone, Blockade (co-injection of NOTA-PEG2-RM26), 2 h, read-out: Radionuclide concentration, Bone
[9] = carcass, 50 pmol, 2 h p.i., i.v., read-out: Radionuclide quantity, Carcass
[10] = carcass, Blockade (co-injection of NOTA-PEG2-RM26), 2 h, read-out: Radionuclide quantity, Carcass
[11] = gastrointestinal tract, 50 pmol, 2 h p.i., i.v., read-out: Radionuclide quantity, Gastrointestinal tract
[12] = gastrointestinal tract, Blockade (co-injection of NOTA-PEG2-RM26), 2 h, read-out: Radionuclide quantity, Gastrointestinal tract
[13] = kidneys, 50 pmol, 2 h p.i., i.v., read-out: Radionuclide concentration, Kidneys
[14] = kidneys, Blockade (co-injection of NOTA-PEG2-RM26), 2 h, read-out: Radionuclide concentration, Kidneys
[15] = liver, 50 pmol, 2 h p.i., i.v., read-out: Radionuclide concentration, Liver
[16] = liver, Blockade (co-injection of NOTA-PEG2-RM26), 2 h, read-out: Radionuclide concentration, Liver
[17] = lungs, 50 pmol, 2 h p.i., i.v., read-out: Radionuclide concentration, Lungs
[18] = lungs, Blockade (co-injection of NOTA-PEG2-RM26), 2 h, read-out: Radionuclide concentration, Lungs
[19] = muscle, 50 pmol, 2 h p.i., i.v., read-out: Radionuclide concentration, Muscle
[20] = muscle, Blockade (co-injection of NOTA-PEG2-RM26), 2 h, read-out: Radionuclide concentration, Muscle
[21] = pancreas, 50 pmol, 2 h p.i., i.v., read-out: Radionuclide concentration, Pancreas
[22] = pancreas, Blockade (co-injection of NOTA-PEG2-RM26), 2 h, read-out: Radionuclide concentration, Pancreas
[23] = small intestine, 50 pmol, 2 h p.i., i.v., read-out: Radionuclide concentration, Small Intestines
[24] = small intestine, Blockade (co-injection of NOTA-PEG2-RM26), 2 h, read-out: Radionuclide concentration, Small Intestines
[25] = spleen, 50 pmol, 2 h p.i., i.v., read-out: Radionuclide concentration, Spleen
[26] = spleen, Blockade (co-injection of NOTA-PEG2-RM26), 2 h, read-out: Radionuclide concentration, Spleen
[27] = stomach, 50 pmol, 2 h p.i., i.v., read-out: Radionuclide concentration, Stomach
[28] = stomach, Blockade (co-injection of NOTA-PEG2-RM26), 2 h, read-out: Radionuclide concentration, Stomach
[29] = total (sum of the measured activities), 50 pmol, 2 h p.i., i.v., sum of the measured activities, read-out: Radionuclide quantity, Total
[30] = total, Blockade (co-injection of NOTA-PEG2-RM26), 2 h, read-out: Radionuclide quantity, Total
[31] = tumor (PC-3 xenograft), 50 pmol, 2 h p.i., i.v., PC-3 xenograft, read-out: Radionuclide concentration, Tumor
[32] = tumor (PC-3 xenograft), Blockade (co-injection of NOTA-PEG2-RM26), 2 h, read-out: Radionuclide concentration, Tumor

| logD [1] | remaining at 1 h, 1 µM [3] [%] | Stability in PBS with EDTA [3] | tissue uptake at 2 h [4, 5] [%ID/g] | tissue uptake at 2 h [4, 6] [%ID/g] | tissue uptake at 2 h [4, 7] [%ID/g] | tissue uptake at 2 h [4, 8] [%ID/g] | tissue uptake dose at 2 h [4, 9] [%ID] | tissue uptake dose at 2 h [4, 10] [%ID] | tissue uptake dose at 2 h [4, 11] [%ID] | tissue uptake dose at 2 h [4, 12] [%ID] | tissue uptake at 2 h [4, 13] [%ID/g] | tissue uptake at 2 h [4, 14] [%ID/g] | tissue uptake at 2 h [4, 15] [%ID/g] | tissue uptake at 2 h [4, 16] [%ID/g] | tissue uptake at 2 h [4, 17] [%ID/g] | tissue uptake at 2 h [4, 18] [%ID/g] | tissue uptake at 2 h [4, 19] [%ID/g] | tissue uptake at 2 h [4, 20] [%ID/g] | tissue uptake at 2 h [4, 21] [%ID/g] | Structure (SMILES) | further results |
| --- | --- | --- | --- | --- | --- | --- | --- | --- | --- | --- | --- | --- | --- | --- | --- | --- | --- | --- | --- | --- | --- |
| -1.43 ± 0.01 | – | – | – | – | – | – | – | – | – | – | – | – | – | – | – | – | – | – | – | CC(C)C[C@H](NC(=O)C[C@H](O)[C@H](CC(C)C)NC(=O)[C@H](Cc1c[nH]cn1)NC(=O)CNC(=O)[C@@H](NC(=O)[C@H](C)NC(=O)[C@H](Cc1c[nH]c2ccccc12)NC(=O)[C@H](CCC(N)=O)NC(=O)[C@@H](Cc1ccccc1)NC(=O)COCCOCCNC(=O)CN1CCN(CC(=O)O)CCN(CC(=O)O)CC1)C(C)C)C(N)=O [[^68Ga]Ga-NOTA-PEG2-RM26, metal not drawn] | accumulation in the kidneys [2]: 1.9 ± 0.3 %IA/g; accumulation in the liver [2]: 1 ± 0.1 %IA/g; accumulation in the lungs [2]: 0.17 ± 0.03 %IA/g; tissue uptake, pancreas [2]: 1.9 ± 0.1 %IA/g; tissue uptake, small intestine [2]: 0.6 ± 0.1 %IA/g; tissue uptake, stomach [2]: 1.4 ± 0.2 %IA/g; tissue uptake, tumor [2]: 5.4 ± 1 %IA/g |
| -1.21 ± 0.03 | 92.8 ± 3.3 | 90.6 ± 4.1 | 0.39 ± 0.08 | 0.42 ± 0.21 | 0.28 ± 0.06 | 0.25 ± 0.03 | 2.8 ± 0.4 | 4.6 ± 0.7 | 4 ± 0.4 | 3.1 ± 1.7 | 8.4 ± 1.4 | 7.6 ± 0.7 | 3.7 ± 1.4 | 2.2 ± 0.5 | 7.1 ± 4.2 | 3.4 ± 0.5 | 0.12 ± 0.02 | 0.12 ± 0.05 | 10.5 ± 3.8 | CC(=O)N[C@@H](CCCCNC(=O)CN1CCN(CC(=O)O)CCN(CC(=O)O)CC1)C(=O)NCc1cccc(OCC(=O)N[C@H](Cc2ccccc2)C(=O)N[C@@H](CCC(N)=O)C(=O)N[C@@H](Cc2c[nH]c3ccccc23)C(=O)N[C@@H](C)C(=O)N[C@H](C(=O)NCC(=O)N[C@@H](Cc2c[nH]cn2)C(=O)N[C@@H](CC(C)C)[C@@H](O)CC(=O)N[C@@H](CC(C)C)C(N)=O)C(C)C)c1 [[^68Ga]Ga-NOTA-mMA-RM26, metal not drawn] (Ac-K(NOTA)[X2][dF]QWAVGH[Sta]L-NH2) | tissue uptake at 2 h [4, 22]: 1.7 ± 0.9 %ID/g; tissue uptake at 2 h [4, 23]: 1.7 ± 0.7 %ID/g; tissue uptake at 2 h [4, 24]: 0.91 ± 0.48 %ID/g; tissue uptake at 2 h [4, 25]: 1.1 ± 0.4 %ID/g; tissue uptake at 2 h [4, 26]: 1.1 ± 0.8 %ID/g; tissue uptake at 2 h [4, 27]: 2.5 ± 0.6 %ID/g; tissue uptake at 2 h [4, 28]: 0.77 ± 0.51 %ID/g; tissue uptake dose at 2 h [4, 29]: 16.5 ± 3.1 %ID; tissue uptake dose at 2 h [4, 30]: 12.6 ± 2 %ID; tissue uptake at 2 h [4, 31]: 12.3 ± 2.8 %ID/g; tissue uptake at 2 h [4, 32]: 1.8 ± 0.2 %ID/g |
| -0.97 ± 0.01 | 95 ± 2.9 | 92.6 ± 4.7 | 0.54 ± 0.01 | 0.31 ± 0.04 | 0.44 ± 0.04 | 0.33 ± 0.07 | 4.1 ± 1.1 | 3.1 ± 1.8 | 5.9 ± 0.5 | 3.5 ± 0.7 | 5.9 ± 0.6 | 3.3 ± 2.3 | 1.9 ± 0.2 | 1.3 ± 0.1 | 0.45 ± 0.27 | 0.37 ± 0.02 | 0.15 ± 0.01 | 0.15 ± 0.13 | 11.7 ± 2.4 | CC(=O)N[C@@H](CCCCNC(=O)CN1CCN(CC(=O)O)CCN(CC(=O)O)CC1)C(=O)NCCc1ccccc1CC(=O)N[C@H](Cc1ccccc1)C(=O)N[C@@H](CCC(N)=O)C(=O)N[C@@H](Cc1c[nH]c2ccccc12)C(=O)N[C@@H](C)C(=O)N[C@H](C(=O)NCC(=O)N[C@@H](Cc1c[nH]cn1)C(=O)N[C@@H](CC(C)C)[C@@H](O)CC(=O)N[C@@H](CC(C)C)C(N)=O)C(C)C [[^68Ga]Ga-NOTA-oET-RM26, metal not drawn] (Ac-K(NOTA)[X1][dF]QWAVGH[Sta]L-NH2) | tissue uptake at 2 h [4, 22]: 1.2 ± 0.2 %ID/g; tissue uptake at 2 h [4, 23]: 2.4 ± 0.4 %ID/g; tissue uptake at 2 h [4, 24]: 0.33 ± 0.24 %ID/g; tissue uptake at 2 h [4, 25]: 0.46 ± 0.06 %ID/g; tissue uptake at 2 h [4, 26]: 0.28 ± 0.07 %ID/g; tissue uptake at 2 h [4, 27]: 2.6 ± 0.6 %ID/g; tissue uptake at 2 h [4, 28]: 0.55 ± 0.19 %ID/g; tissue uptake dose at 2 h [4, 29]: 16.3 ± 1.6 %ID; tissue uptake dose at 2 h [4, 30]: 8.5 ± 3 %ID; tissue uptake at 2 h [4, 31]: 11.2 ± 3.4 %ID/g; tissue uptake at 2 h [4, 32]: 1.3 ± 0.2 %ID/g |
